Source: patent US20230017786A1, “DEXTR[…] A DISEASE-MODIFYING TREATMENT FOR NEUROPSYCHIATRIC DISORDERS AND DISEASES” (priority 2020, published 2023)
“And” between values parts separate entries of the source, which are not always exact repeats. Equal entries are not always repeated.

Columns and labels:
Type in all cases: cell-based
[1] = target: T1, human NMDA receptor GluN1-GluN2A (Homo sapiens, UniProt Q05586+Q12879); experiment: FLIPR calcium assay, quinolinic acid, gentamicin, dextromethadone (Example 5 Part II), GluN1-GluN2A-CHO; design: calcium response (mean±SEM): unit not given here; conditions: 10 μM glycine, GluN2A, n=42
T1 construct: expressed in transfected cells; host or cells: CHO
Experimental: (§1) Quinolinic acid or gentamicin CRCs were also produced, in presence of 10 μM glycine.
(§2) Test items were evaluated in FLIPR for their ability to modulate, alone or in combination, calcium entry in presence of […], using four CHO cell lines expressing diheteromeric human NMDA receptor (NMDAR): GluN-/GluN2A-CHO, GluN1-GluN2B-CHO, GluN1-GluN2C-CHO, GluN1-GluN2D-CHO.
(§3) The first aim of the study was to evaluate quinolinic acid or gentamicin CRC effect in the presence of 10 μM glycine.
(§4) FLIPR determination of intracellular calcium level was used as a read-out for NMDAR activation.
(§5) 400× compound plate was stored at −20° C. till FLIPR experimental day.
(§6) A 4× compound plate was generated from 400× compound plate by addition of up to 30 μl/well of compound buffer on FLIPR experimental day.
(§7) A FLIPR system was used to monitor intracellular calcium level in NMDAR cell lines, pre-loaded for 1 hour with Fluo-4, and then washed with assay buffer.
(§8) Y=Bottom+(Top−Bottom)/(1+10^((LogEC50−X)*HillSlope))
(§9) Test item CRC data were plotted by Prism 8 GraphPad software, in the different experimental conditions. And, column analysis, performed by Prism 8 GraphPad software, was one way ANOVA followed by Tukey's multiple comparisons test, with a single pooled variance.

[2] = target: T2, human NMDA receptor GluN1-GluN2D (Homo sapiens, UniProt O15399+Q05586); experiment: FLIPR calcium assay, test item effect on L-glutamate CRC, GluN1-GluN2D-CHO
T2 construct: expressed in transfected cells; host or cells: CHO
Experimental: as §4
(§10) 400× compound plate was stored at −20° C. until FLIPR experimental day.
(§11) 4× compound plate was generated from 400× compound plate by addition of up to 30 μl/well of compound buffer on FLIPR experimental day.
as §7
(§12) Y=Bottom+(Top−Bottom)/(1+10^((LogEC50−Log[A])*HillSlope))

[3] = target: T1, human NMDA receptor GluN1-GluN2A; experiment: FLIPR calcium assay, test item effect on L-glutamate CRC, GluN1-GluN2A-CHO
Experimental: as §4, §10, §11, §7, §12

[4] = target: T3, human NMDA receptor GluN1-GluN2B (Homo sapiens, UniProt Q05586+Q13224); experiment: cell-based
T3 construct: expressed in transfected cells; host or cells: CHO
Experimental: as §4, §10, §11, §7, §12

[5] = target: T2, human NMDA receptor GluN1-GluN2D; experiment: FLIPR calcium assay, quinolinic acid, gentamicin, dextromethadone (Example 5 Part II), GluN1-GluN2D-CHO; conditions: 10 μM glycine; for calcium response (mean±SEM): GluN2D, n=42
Experimental: as §1, §2, §3, §4, §5, §6, §7, §8, §9

[6] = target: T4, human NMDA receptor GluN1-GluN2C (Homo sapiens, UniProt Q05586+Q14957); experiment: FLIPR calcium assay, quinolinic acid, gentamicin, dextromethadone (Example 5 Part II), GluN1-GluN2C-CHO; conditions: 10 μM glycine; for calcium response (mean±SEM): GluN2C, n=42
T4 construct: expressed in transfected cells; host or cells: CHO
Experimental: as §1, §2, §3, §4, §5, §6, §7, §8, §9

[7] = target: T4, human NMDA receptor GluN1-GluN2C; experiment: FLIPR calcium assay, test item effect on L-glutamate CRC, GluN1-GluN2C-CHO
Experimental: as §4, §10, §11, §7, §12

[8] = target: T3, human NMDA receptor GluN1-GluN2B; experiment: FLIPR calcium assay, quinolinic acid, gentamicin, dextromethadone (Example 5 Part II), GluN1-GluN2B-CHO; conditions: 10 μM glycine, GluN2B, n=42
Experimental: as §1, §2, §3, §4, §5, §6, §7, §8, §9

[9] = L-glutamate alone, 10 μM glycine
[10] = calculated from EC50 and Hill slope

T3 sequence (Q13224 27-1484, other chains not shown): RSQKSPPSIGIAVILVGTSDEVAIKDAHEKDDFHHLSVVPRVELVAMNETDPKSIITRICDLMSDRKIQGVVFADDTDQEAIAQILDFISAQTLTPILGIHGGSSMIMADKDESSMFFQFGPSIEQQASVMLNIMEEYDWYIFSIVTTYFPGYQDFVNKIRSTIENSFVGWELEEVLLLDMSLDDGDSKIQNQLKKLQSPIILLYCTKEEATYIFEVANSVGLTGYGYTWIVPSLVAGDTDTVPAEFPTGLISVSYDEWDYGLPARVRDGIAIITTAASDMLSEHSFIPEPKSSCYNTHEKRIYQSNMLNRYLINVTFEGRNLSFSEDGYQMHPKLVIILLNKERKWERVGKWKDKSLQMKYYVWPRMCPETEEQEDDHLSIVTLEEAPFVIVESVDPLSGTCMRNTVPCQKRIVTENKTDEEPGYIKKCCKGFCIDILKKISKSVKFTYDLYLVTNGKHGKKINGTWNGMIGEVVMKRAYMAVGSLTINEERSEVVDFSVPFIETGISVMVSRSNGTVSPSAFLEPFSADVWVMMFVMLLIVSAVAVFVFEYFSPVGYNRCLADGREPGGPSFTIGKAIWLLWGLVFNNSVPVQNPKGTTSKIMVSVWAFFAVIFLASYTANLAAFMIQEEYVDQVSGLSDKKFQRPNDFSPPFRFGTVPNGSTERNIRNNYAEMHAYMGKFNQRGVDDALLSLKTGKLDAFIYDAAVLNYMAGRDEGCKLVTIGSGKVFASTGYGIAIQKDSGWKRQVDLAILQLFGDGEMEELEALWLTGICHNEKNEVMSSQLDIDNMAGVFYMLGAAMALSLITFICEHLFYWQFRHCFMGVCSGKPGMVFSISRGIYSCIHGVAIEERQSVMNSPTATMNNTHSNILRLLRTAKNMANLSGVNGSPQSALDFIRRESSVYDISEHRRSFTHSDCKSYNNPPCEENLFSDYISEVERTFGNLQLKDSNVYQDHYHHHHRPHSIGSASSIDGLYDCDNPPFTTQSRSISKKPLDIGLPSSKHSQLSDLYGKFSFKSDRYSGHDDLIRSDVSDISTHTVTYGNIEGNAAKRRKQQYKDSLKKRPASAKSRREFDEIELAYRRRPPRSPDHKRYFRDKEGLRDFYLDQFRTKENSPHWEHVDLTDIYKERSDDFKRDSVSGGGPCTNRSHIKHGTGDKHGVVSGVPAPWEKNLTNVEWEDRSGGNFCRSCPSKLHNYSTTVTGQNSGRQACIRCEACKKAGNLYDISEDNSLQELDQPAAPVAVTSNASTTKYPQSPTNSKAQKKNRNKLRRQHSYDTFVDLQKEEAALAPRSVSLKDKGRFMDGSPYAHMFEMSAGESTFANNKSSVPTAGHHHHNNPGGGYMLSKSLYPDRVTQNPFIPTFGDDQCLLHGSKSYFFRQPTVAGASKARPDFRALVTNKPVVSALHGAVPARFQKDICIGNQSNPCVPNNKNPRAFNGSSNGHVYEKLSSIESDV
T2 sequence (O15399 28-1336, other chains not shown): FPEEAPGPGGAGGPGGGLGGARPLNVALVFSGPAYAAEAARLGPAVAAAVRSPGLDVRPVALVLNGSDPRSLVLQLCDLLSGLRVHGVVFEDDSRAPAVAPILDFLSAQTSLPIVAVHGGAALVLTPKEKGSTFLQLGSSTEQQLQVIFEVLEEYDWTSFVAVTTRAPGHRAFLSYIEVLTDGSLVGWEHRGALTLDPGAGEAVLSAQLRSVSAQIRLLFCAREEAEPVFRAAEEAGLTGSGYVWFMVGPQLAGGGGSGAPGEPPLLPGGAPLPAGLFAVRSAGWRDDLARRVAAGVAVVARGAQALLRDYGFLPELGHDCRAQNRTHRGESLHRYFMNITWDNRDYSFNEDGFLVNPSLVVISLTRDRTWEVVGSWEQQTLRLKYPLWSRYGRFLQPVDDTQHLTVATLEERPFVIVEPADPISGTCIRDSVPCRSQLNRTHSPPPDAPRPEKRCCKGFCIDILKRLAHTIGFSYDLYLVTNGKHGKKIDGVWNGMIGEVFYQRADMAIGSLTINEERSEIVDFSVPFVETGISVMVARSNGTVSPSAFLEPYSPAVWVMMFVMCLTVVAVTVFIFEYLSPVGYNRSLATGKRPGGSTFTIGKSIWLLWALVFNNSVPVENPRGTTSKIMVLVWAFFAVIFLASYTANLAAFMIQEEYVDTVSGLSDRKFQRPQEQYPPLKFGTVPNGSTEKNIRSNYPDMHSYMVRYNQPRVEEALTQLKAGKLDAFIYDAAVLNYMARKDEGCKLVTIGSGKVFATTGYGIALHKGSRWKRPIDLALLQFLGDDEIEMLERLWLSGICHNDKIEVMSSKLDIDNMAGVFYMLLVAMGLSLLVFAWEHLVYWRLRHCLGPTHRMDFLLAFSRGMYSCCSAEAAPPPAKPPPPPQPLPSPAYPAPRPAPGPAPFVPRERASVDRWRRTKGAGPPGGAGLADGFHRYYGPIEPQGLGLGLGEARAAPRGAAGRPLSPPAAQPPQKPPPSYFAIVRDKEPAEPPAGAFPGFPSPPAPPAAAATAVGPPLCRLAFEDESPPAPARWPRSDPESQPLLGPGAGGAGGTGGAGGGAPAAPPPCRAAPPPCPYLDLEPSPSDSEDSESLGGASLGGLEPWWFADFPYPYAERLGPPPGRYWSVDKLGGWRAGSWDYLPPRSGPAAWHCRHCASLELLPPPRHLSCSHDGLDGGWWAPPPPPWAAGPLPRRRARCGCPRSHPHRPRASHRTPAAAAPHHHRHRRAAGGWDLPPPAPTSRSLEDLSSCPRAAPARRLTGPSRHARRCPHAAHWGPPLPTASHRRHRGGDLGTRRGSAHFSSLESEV
T1 sequence (Q12879 23-1464, other chains not shown): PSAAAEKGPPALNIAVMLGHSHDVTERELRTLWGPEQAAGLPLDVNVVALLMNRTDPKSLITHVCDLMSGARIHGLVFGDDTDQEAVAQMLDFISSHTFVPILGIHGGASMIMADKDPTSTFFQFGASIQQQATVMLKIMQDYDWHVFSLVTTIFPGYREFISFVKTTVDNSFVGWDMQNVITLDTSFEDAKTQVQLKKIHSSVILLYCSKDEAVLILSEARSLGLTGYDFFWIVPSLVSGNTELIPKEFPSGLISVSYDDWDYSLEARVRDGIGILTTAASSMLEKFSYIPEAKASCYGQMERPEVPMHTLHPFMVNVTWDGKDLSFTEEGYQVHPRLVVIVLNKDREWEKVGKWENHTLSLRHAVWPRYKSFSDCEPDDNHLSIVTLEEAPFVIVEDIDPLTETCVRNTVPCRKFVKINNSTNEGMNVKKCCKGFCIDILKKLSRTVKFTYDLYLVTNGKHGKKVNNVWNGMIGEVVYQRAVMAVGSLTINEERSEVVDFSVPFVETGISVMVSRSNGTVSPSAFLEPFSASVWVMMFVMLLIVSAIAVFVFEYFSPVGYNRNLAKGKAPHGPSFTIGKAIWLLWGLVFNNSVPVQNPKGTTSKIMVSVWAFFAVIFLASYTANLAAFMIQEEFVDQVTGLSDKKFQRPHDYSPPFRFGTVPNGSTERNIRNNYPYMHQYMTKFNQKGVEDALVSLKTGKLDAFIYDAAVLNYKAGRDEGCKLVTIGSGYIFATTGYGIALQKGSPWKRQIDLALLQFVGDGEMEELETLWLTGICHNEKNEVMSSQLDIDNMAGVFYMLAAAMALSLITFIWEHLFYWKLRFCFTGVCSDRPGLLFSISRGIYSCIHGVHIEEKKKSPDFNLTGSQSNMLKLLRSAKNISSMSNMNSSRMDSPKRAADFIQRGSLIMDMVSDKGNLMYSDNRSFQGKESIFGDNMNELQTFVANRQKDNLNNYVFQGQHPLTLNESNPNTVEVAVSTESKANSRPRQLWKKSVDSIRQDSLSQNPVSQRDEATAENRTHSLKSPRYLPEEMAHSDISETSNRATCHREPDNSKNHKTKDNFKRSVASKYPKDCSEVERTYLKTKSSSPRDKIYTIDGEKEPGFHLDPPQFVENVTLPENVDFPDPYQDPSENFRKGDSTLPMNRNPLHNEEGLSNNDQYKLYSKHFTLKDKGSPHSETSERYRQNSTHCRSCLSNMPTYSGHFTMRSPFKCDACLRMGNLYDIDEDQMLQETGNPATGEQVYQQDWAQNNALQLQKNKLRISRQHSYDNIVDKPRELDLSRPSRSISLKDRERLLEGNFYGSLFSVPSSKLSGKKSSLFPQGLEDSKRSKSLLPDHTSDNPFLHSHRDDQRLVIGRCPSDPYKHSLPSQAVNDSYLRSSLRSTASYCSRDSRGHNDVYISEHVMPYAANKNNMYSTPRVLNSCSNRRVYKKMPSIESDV

`N[C@@H](CCC(=O)O)C(=O)O` [L-glutamate, L-glutamic acid] was tested, and the “calcium response (mean±SEM)” value ([1]; 0.04 μM L-Glu) was 1.7 ± 0.3, the “calcium response (mean±SEM)” value ([1]; 0.2 μM L-Glu) was 22 ± 0.7 and the “calcium response (mean±SEM)” value ([1]; Table 41: 0.04 μM L-Glu) was 1.7 ± 0.3. The “calcium response (mean±SEM)” value ([1]; Table 43: 0.2 μM L-Glu) was 22 ± 0.7, the Bottom [2, 9] was 5.3 and the HillSlope [2, 9] was 1.6. The LogEC50 [2, 9] was −7.5, the Span [2, 9] was 99 and the Top [2, 9] was 105. For the same molecule, the “ECF, F=5” value [2, 10] was 54 nM, the “ECF, F=10” value [2, 10] was 86 nM and the “ECF, F=20” value [2, 10] was 140 nM. For the same molecule, the “ECF, F=30” value [2, 10] was 200 nM, the “ECF, F=40” value [2, 10] was 260 nM and the “ECF, F=90” value [2, 10] was 1.34 µM. The “ECF, F=95” value [2, 10] was 2.14 µM, the “ECF, F=99 (maximal effect)” value [2, 10] was 6 µM and 6.01 µM and the Bottom [3, 9] was −0.62. The HillSlope [3, 9] was 1.0, the Span [3, 9] was 107 and the Top [3, 9] was 106. For the same molecule, the “ECF, F=5” value [3, 10] was 160 nM, the “ECF, F=10” value [3, 10] was 280 nM and the “ECF, F=20” value [3, 10] was 630 nM. The “ECF, F=30” value [3, 10] was 1.07 µM, the “ECF, F=40” value [3, 10] was 1.67 µM and the “ECF, F=90” value [3, 10] was 23 µM. For the same molecule, the “ECF, F=95” value [3, 10] was 48 µM, the “ECF, F=99 (maximal effect)” value [3, 10] was 250 µM and the Bottom [4] was 1.7. For the same molecule, the “ECF, F=5” value [4] was 140 nM, the “ECF, F=10” value [4] was 240 nM and the “ECF, F=20” value [4] was 450 nM. The “ECF, F=30” value [4] was 680 nM, the “ECF, F=40” value [4] was 950 nM and the “ECF, F=90” value [4] was 7.05 µM. For the same molecule, the “ECF, F=95” value [4] was 13 µM, the “ECF, F=99 (maximal effect)” value [4] was 45 µM and the HillSlope [4] was 1.3. The Span [4] was 109, the Top [4] was 111 and the “calcium response (mean±SEM)” value ([5]; 0.04 μM L-Glu) was 18 ± 1.2. For the same molecule, the “calcium response (mean±SEM)” value ([5]; 0.2 μM L-Glu) was 92 ± 2.0, the “efficacy of 0.2 μM L-glutamate alone” value [5] was 92±2.0% and the “calcium response (mean±SEM)” value ([5]; Table 41: 0.04 μM L-Glu) was 18 ± 1.2. For the same molecule, the “calcium response (mean±SEM)” value ([5]; Table 43: 0.2 μM L-Glu) was 92 ± 2.0, the “calcium response (mean±SEM)” value ([6]; 0.04 μM L-Glu) was −1.2 ± 0.6 and the “calcium response (mean±SEM)” value ([6]; 0.2 μM L-Glu) was 30 ± 1.7. The “intracellular calcium increase elicited by 0.2 μM L-glutamate” value ([6]; L-glutamate alone) was 30±1.7%, the “calcium response (mean±SEM)” value ([6]; Table 41: 0.04 μM L-Glu) was −1.2 ± 0.6 and the “calcium response (mean±SEM)” value ([6]; Table 43: 0.2 μM L-Glu) was 30 ± 1.7. For the same molecule, the Bottom [7, 9] was 0.88, the HillSlope [7, 9] was 1.5 and the LogEC50 [7, 9] was −7.1. The Span [7, 9] was 105, the Top [7, 9] was 106 and the “ECF, F=5” value [7, 10] was 120 nM. The “ECF, F=10” value [7, 10] was 200 nM, the “ECF, F=20” value [7, 10] was 350 nM and the “ECF, F=30” value [7, 10] was 500 nM. The “ECF, F=40” value [7, 10] was 660 nM, the “ECF, F=90” value [7, 10] was 3.76 µM and the “ECF, F=95” value [7, 10] was 6.19 µM. For the same molecule, the “ECF, F=99 (maximal effect)” value [7, 10] was 19 µM, the “calcium response (mean±SEM)” value ([8]; 0.04 μM L-Glu) was −0.9 ± 0.6 and the “calcium response (mean±SEM)” value ([8]; 0.2 μM L-Glu) was 18 ± 1.2. The “calcium response (mean±SEM)” value ([8]; Table 41: 0.04 μM L-Glu) was 0.9 ± 0.6 and the “calcium response (mean±SEM)” value ([8]; Table 43: 0.2 μM L-Glu) was 18 ± 1.2.
